Measurements taken from PubChem BioAssay (NCI).
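Interpolation was linear, between the two tested concentrations surrounding the appropriate level; five concentrations were tested over 48 hours in 96-well plates. At the GI50, growth is halved. The concentration for full growth arrest is given as TGI.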

What was measured:
Assay in all cases: growth of human tumour cells (NCI), 48 h
[1] = system: 786-0 renal
[2] = system: A498 renal
[3] = system: A549 NSCLC
[4] = system: ACHN renal
[5] = system: BT-549 breast
[6] = system: CAKI-1 renal
[7] = system: CCRF-CEM leukemia
[8] = system: COLO 205 colon
[9] = system: DU-145 prostate
[10] = system: EKVX NSCLC
[11] = system: HCC-2998 colon
[12] = system: HCT-116 colon
[13] = system: HCT-15 colon
[14] = system: HL-60(TB) leukemia
[15] = system: HOP-62 NSCLC
[16] = system: HOP-92 NSCLC
[17] = system: HS 578T breast
[18] = system: HT29 colon
[19] = system: IGROV1 ovarian
[20] = system: K-562 leukemia
[21] = system: KM12 colon
[22] = system: M14 melanoma
[23] = system: MALME-3M melanoma
[24] = system: MCF7 breast
[25] = system: MDA-MB-231 breast
[26] = system: MDA-MB-435
[27] = system: MOLT-4 leukemia
[28] = system: NCI-H226 lung
[29] = system: NCI-H23 lung
[30] = system: NCI-H460 lung
[31] = system: NCI-H522 lung
[32] = system: NCI/ADR-RES ovarian
[33] = system: OVCAR-4 ovarian
[34] = system: OVCAR-5 ovarian
[35] = system: OVCAR-8 ovarian
[36] = system: PC-3 prostate
[37] = system: RPMI-8226 leukemia
[38] = system: RXF 393 renal
[39] = system: SF-268 CNS
[40] = system: SF-295 CNS
[41] = system: SF-539 CNS
[42] = system: SK-MEL-2 melanoma
[43] = system: SK-MEL-28 melanoma
[44] = system: SK-MEL-5 melanoma
[45] = system: SK-OV-3 ovarian
[46] = system: SN12C renal
[47] = system: SNB-19 CNS
[48] = system: SNB-75 CNS
[49] = system: SR leukemia
[50] = system: SW-620 colon
[51] = system: T-47D breast
[52] = system: TK-10 renal
[53] = system: U251 CNS
[54] = system: UACC-257 melanoma
[55] = system: UACC-62 melanoma
[56] = system: UO-31 renal

Fc1ccc(-c2cc3nc(C(Cl)Cl)nc(-c4cccs4)n3n2)cc1
GI50 [1]: 2310 nM | TGI [1]: 7330 nM | GI50 [2]: 1020 nM | TGI [2]: 2360 nM | GI50 [3]: 745 nM | TGI [3]: 4920 nM | GI50 [4]: 301 nM | TGI [4]: 1210 nM | GI50 [5]: > 100000 nM | TGI [5]: > 100000 nM | GI50 [6]: 1220 nM | TGI [6]: 5040 nM | GI50 [7]: 19600 nM | TGI [7]: > 100000 nM | GI50 [8]: 805 nM | TGI [8]: 3120 nM | GI50 [9]: 310 nM | TGI [9]: 888 nM | GI50 [10]: 1120 nM | TGI [10]: 4070 nM | GI50 [11]: 410 nM | TGI [11]: 1590 nM | GI50 [12]: 1530 nM | TGI [12]: > 100000 nM | GI50 [13]: 1100 nM | TGI [13]: 3710 nM | GI50 [14]: 290 nM | TGI [14]: 2230 nM | GI50 [15]: 454 nM | TGI [15]: 3460 nM | GI50 [16]: 537 nM | TGI [16]: 2960 nM | GI50 [17]: 1950 nM | TGI [17]: 7030 nM | GI50 [18]: 356 nM | TGI [18]: 2050 nM | GI50 [19]: 3070 nM | TGI [19]: > 100000 nM | GI50 [20]: 2530 nM | TGI [20]: > 100000 nM | GI50 [21]: 2200 nM | TGI [21]: 17500 nM | GI50 [22]: 4500 nM | TGI [22]: > 100000 nM | GI50 [23]: 7500 nM | TGI [23]: > 100000 nM | GI50 [24]: 369 nM | TGI [24]: 4310 nM | GI50 [25]: 505 nM | TGI [25]: 3100 nM | GI50 [26]: 1630 nM | TGI [26]: 3450 nM | GI50 [27]: 3560 nM | TGI [27]: > 100000 nM | GI50 [28]: > 100000 nM | TGI [28]: > 100000 nM | GI50 [29]: 1470 nM | TGI [29]: 4000 nM | GI50 [30]: 309 nM | TGI [30]: 1190 nM | GI50 [31]: > 100000 nM | TGI [31]: > 100000 nM | GI50 [32]: 1170 nM | TGI [32]: 5660 nM | GI50 [33]: 2390 nM | TGI [33]: 6220 nM | GI50 [34]: 1750 nM | TGI [34]: 5310 nM | GI50 [35]: 1210 nM | TGI [35]: > 100000 nM | GI50 [36]: 1190 nM | TGI [36]: 4670 nM | GI50 [37]: 847 nM | TGI [37]: 5790 nM | GI50 [38]: 403 nM | TGI [38]: 1710 nM | GI50 [39]: 1610 nM | TGI [39]: 7990 nM | GI50 [40]: 949 nM | TGI [40]: 4790 nM | GI50 [41]: 1050 nM | TGI [41]: 2890 nM | GI50 [42]: 3100 nM | TGI [42]: 9660 nM | GI50 [43]: 1860 nM | TGI [43]: 3590 nM | GI50 [44]: > 100000 nM | TGI [44]: > 100000 nM | GI50 [45]: 2210 nM | TGI [45]: 13800 nM | GI50 [46]: 36100 nM | TGI [46]: > 100000 nM | GI50 [47]: 664 nM | TGI [47]: 4400 nM | GI50 [48]: 284 nM | TGI [48]: 2810 nM | GI50 [49]: 3700 nM | TGI [49]: > 100000 nM | GI50 [50]: 1180 nM | TGI [50]: 8610 nM | GI50 [51]: 1600 nM | TGI [51]: 7240 nM | GI50 [52]: 3140 nM | TGI [52]: 6880 nM | GI50 [53]: 319 nM | TGI [53]: 1980 nM | GI50 [54]: 3040 nM | TGI [54]: 9150 nM | GI50 [55]: 2710 nM | TGI [55]: 15000 nM | GI50 [56]: 1260 nM | TGI [56]: 5500 nM
